Earlier results as cited in the PKSmart pharmacokinetics tables (Seal et al. 2025).
Where a SMILES comes first, the peptide text is derived from it. Bridges are numbered along the chain shown (N, C = ends). [ ]: non-standard residue; d: D form. ξ: configuration not given here. ξ2Nal = NC(Cc1ccc2ccccc2c1)C(=O)O; ξW = NC(Cc1c[nH]c2ccccc12)C(=O)O; ξThr(3R) = C[C@@H](O)C(N)C(=O)O; ξY = NC(Cc1ccc(O)cc1)C(=O)O; ξK = NCCCCC(N)C(=O)O; ξV = CC(C)C(N)C(=O)O; ξC = NC(CS)C(=O)O

Assay: Lombardo, Berellini, Obach 2018, Drug Metab Dispos 46:1466, doi 10.1124/dmd.118.082966
Conditions: human; for MRT / Vd / clearance / half-life: in vivo, iv; for fraction unbound: plasma

Row | Structure (SMILES) | MRT [h] | Vd [L/kg] | clearance [mL/min/kg] | half-life [h] | fraction unbound
1 | Nc1ccn([C@H]2CO[C@@H](CO)S2)c(=O)n1 | 6.5 | 1.18 | 3 | 19.2 | –
2 | COc1c(C)c2c(c(O)c1C/C=C(\C)CCC(=O)O)C(=O)OC2 | 6.5 | 0.77 | 2.33 | 9.7 | 0.02
3 | [H]/N=C(\N)c1cccc(CC(C(=O)OC)[C@@H](C)NC(=O)c2ccc(-c3cc[n+]([O-])cc3)cc2)c1 (stereo not given in full) | 2.02 | 0.89 | 7.38 | 3 | –
4 | Nc1nc2[nH]cnc2c(=S)[nH]1 | 3.13 | 2.89 | 15.4 | 24.4 | –
5 | CN1Cc2c(N)cccc2C(c2ccccc2)C1 (stereo not given) | 4.5 | 6 | 22 | 6.5 | –
6 | C[C@@H](O)C1C(=O)N2C(C(=O)O)=C(CN)S[C@H]12 (stereo not given in full) | 0.5 | 0.23 | 7.67 | 0.5 | –
7 | CC1C(=O)O[C@H]2[C@H](O)C34[C@H]5C[C@@H](C(C)(C)C)C36C(O)C(=O)O[C@H]6OC4(C(=O)O5)[C@@]12O (stereo not given in full) | 6.6 | 0.91 | 2.3 | 5.2 | 0.8
8 | NC(CCC(=O)NC(CS(=O)(=O)CCOP(=O)(N(CCCl)CCCl)N(CCCl)CCCl)C(=O)NC(C(=O)O)c1ccccc1)C(=O)O (stereo not given) | 0.27 | 0.46 | 28.5 | 0.28 | –
9 | N=C(N)N/N=C1\CCc2c(C(=N)N)cccc21 | 104 | 20 | 3.2 | 65.4 | –
10 | CCC(C)C(=O)O[C@H]1C[C@@H](C)C=C2C=C[C@H](C)[C@H](CC[C@@H](O)C[C@@H](O)CC(=O)O)[C@H]21 (stereo not given in full) | 1.3 | 0.87 | 7.2 | 1.4 | 0.043
11 | CCOC(=O)[C@]1(c2ccccc2)CCC=C[C@H]1N(C)C | 4.2 | 4 | 16 | 5 | 0.21
12 | CNC[C@@H]1CC[C@@H](N)[C@@H](O[C@@H]2[C@H](O)[C@@H](O[C@H]3OC[C@](C)(O)[C@H](NC)[C@H]3O)[C@H](N)C[C@@H]2N)O1 | 2.4 | 0.15 | 1.1 | 2.1 | –
13 | CC(C)C1NC(=O)C(CCCCN)NC(=O)C(Cc2c[nH]c3ccccc23)NC(=O)C(Cc2ccc(O)cc2)NC(=O)C(NC(=O)C(N)Cc2ccc3ccccc3c2)CSSCC(C(=O)NC(C(N)=O)[C@@H](C)O)NC1=O (stereo partly drawn) (H-[ξ2Nal][ξC][ξY][ξW][ξK][ξV][ξC][ξThr(3R)]-NH2; disulfide 2-7) | 0.57 | 0.2 | 5.7 | 1.03 | –
14 | Fc1ccc([C@@H]2CCNC[C@H]2COc2ccc3c(c2)OCO3)cc1 | 17 | 18 | 18 | 13 | 0.06
15 | COC(=O)Nc1nc2cc(C(=O)c3ccccc3)ccc2[nH]1 | 1.3 | 1.2 | 15 | 1.1 | –
16 | COc1ccc2c3c1O[C@H]1[C@@H](O)CC[C@H]4[C@@H](C2)N(C)CC[C@@]341 | 4.08 | 1.07 | 4.21 | 3.42 | –
17 | CC[C@@]1(O)CN2CC[C@H]1C[C@@H]2[C@@H](O)c1ccnc2ccc(OC)cc12 | 9.4 | 6.8 | 12 | 6.7 | 0.47
18 | CN1C(=O)CC[C@H]1c1cccnc1 | 21 | 1.1 | 0.89 | 17 | –
19 | Cc1ccccc1-c1cc(N2CCN(C)CC2)ncc1N(C)C(=O)C(C)(C)c1cc(C(F)(F)F)cc(C(F)(F)F)c1 | 32.6 | 5.54 | 2.83 | 34.3 | 0.003
20 | COC1C(=O)C(C)C[C@H](C)/C=C/C=C/C=C(\C)[C@@H](OC)C[C@@H]2CC[C@@H](C)[C@@](O)(O2)C(=O)C(=O)N2CCCCC2C(=O)O[C@H]([C@H](C)C[C@@H]2CC[C@@H](OC(=O)C(C)(CO)CO)[C@H](OC)C2)CC(=O)C(C)=CC(C)[C@H]1O (stereo not given in full) | 10 | 3 | 7.7 | 18 | –
21 | COc1ccc(C(=O)Nc2ccccc2CCC2CCCCN2C)cc1 (stereo not given) | 2.8 | 2.2 | 13 | 2.6 | –
22 | CNCCC=C1c2ccccc2CCc2ccccc21 | 37 | 22 | 10 | 30 | –
23 | O=C(O)C(Cl)Cl | 0.6 | 0.19 | 5.3 | 0.65 | –

Row | Structure (SMILES) | MRT [h] | Vd [L/kg] | clearance [mL/min/kg] | half-life [h] | fraction unbound
24 | CCC(CC)COC(C(=O)OCCN(C)C)(c1ccccc1)c1ccccc1 | 21 | 7.1 | 5.7 | 34 | –
25 | N#CN | 0.8 | 0.78 | 17 | 0.43 | –
26 | COc1ccccc1N1CCN(C[C@@H](O)COc2cccc3ccccc23)CC1 | – | – | 11 | 3.3 | 0.008
27 | COC(=O)O[C@@]12CO[C@@H]1C[C@H](O)[C@@]1(C)C(=O)C(OC(C)=O)=C3C(C)[C@@H](OC(=O)C(O)C(NC(=O)c4ccccc4)c4ccccc4)C[C@@](O)([C@@H](OC(=O)c4ccccc4)[C@H]21)C3(C)C (stereo not given in full) | 13 | 6.9 | 8.6 | 31 | –
28 | O[C@@H]1[C@@H](O)[C@@H](O)OC[C@H]1O | 1.9 | 0.23 | 2.38 | 1.2 | –
29 | C=CCN(C1=NCCN1)c1c(Cl)cccc1Cl | 3.77 | 2.72 | 12 | 3.14 | 0.4
30 | Oc1ccc(C2=Cc3ccc(O)cc3OC2)cc1 | 0.44 | 1.55 | 59.1 | 0.67 | –
31 | Cc1nccn1CC1CCc2c(c3ccccc3n2C)C1=O (stereo not given) | 5.2 | 1.8 | 5.8 | 3.4 | –
32 | CCC#CC[C@H](C)[C@H](O)C#C[C@H]1[C@H]2CC(=CCOCCCC(=O)O)C[C@H]2C[C@H]1O | 0.59 | 2.4 | 66.2 | 0.41 | –
33 | CCc1nc(N)nc(N)c1-c1ccc(Cl)cc1 | 140 | 0.43 | 0.052 | 140 | 0.095
34 | COC(=O)c1ccc2c(C(=Nc3ccc(N(C)C(=O)CN4CCN(C)CC4)cc3)c3ccccc3)c(O)[nH]c2c1 | 12.6 | 15 | 19.9 | 9.5 | 0.02
35 | CC(=O)N1CCN([C@H]2CCN(C(=O)N(C)[C@H](C)c3cc(C(F)(F)F)cc(C(F)(F)F)c3)[C@@H](c3ccc(F)cc3C)C2)CC1 | 15 | 2.77 | 3.07 | 15.6 | 1
36 | CCn1cc(C(=O)O)c(=O)c2cc(F)c(N3CCN[C@@H](C)C3)c(F)c21 | 7.89 | 2.04 | 3.98 | 8.1 | –
37 | OCCN(CCO)c1nc(N2CCCCC2)c2nc(N(CCO)CCO)nc(N3CCCCC3)c2n1 | 6.8 | – | 2 | 13 | –
38 | C=CCNc1c(O)cc2c(O)c1C=C(C)C[C@H](OC)[C@H](O)[C@@H](C)/C=C(\C)[C@H](OC(N)=O)[C@@H](OC)C=CC=C(C)C(=O)N2 | 3.27 | 2 | 10.2 | 3 | –
39 | COc1cc(OC)c(/C=C/S(=O)(=O)Cc2ccc(OC)c(NCC(=O)O)c2)c(OC)c1 | 1.2 | 0.11 | 1.51 | 0.95 | –
40 | CNCc1ccc(-c2[nH]c3cc(F)cc4c3c2CCNC4=O)cc1 | 12.7 | 3.28 | 4.31 | 16.6 | –
41 | COc1ccc2[nH]c3c(c2c1)CCN[C@]31CS[C@@H]2c3c(OC(C)=O)c(C)c4c(c3[C@H](COC1=O)N1[C@@H]2[C@H]2c3c(cc(C)c(OC)c3O)C[C@@H]([C@@H]1O)N2C)OCO4 | 44 | 7.3 | 2.76 | 50.7 | –
42 | C/C=C(/C)C(=O)O[C@H]1[C@H](OC(C)=O)[C@]2(CO)[C@H](O)C[C@]3(C)C(=CC[C@@H]4[C@@]5(C)CC[C@H](O[C@@H]6OC(C(=O)O)[C@@H](O[C@@H]7O[C@H](CO)[C@@H](O)[C@H](O)[C@H]7O)[C@H](O)[C@H]6O[C@@H]6O[C@H](CO)[C@@H](O)[C@H](O)[C@H]6O)[C@](C)(CO)[C@@H]5CC[C@]43C)[C@@H]2CC1(C)C (stereo not given in full) | 1.5 | 0.23 | 2.55 | 1.8 | –
43 | O=C1NC(c2ccccc2)(c2ccccc2)C(=O)N1COP(=O)(O)O | 0.17 | 0.06 | 3.5 | 0.16 | 0.05
44 | CC[C@H](C)[C@@H]([C@@H](CC(=O)N1CCC[C@H]1[C@H](OC)C(C)C(=O)NCCc1ccccc1)OC)N(C)C(=O)C(NC(=O)C(C(C)C)N(C)C)C(C)C (stereo not given in full) | 4.6 | 0.42 | 1.6 | 5.67 | –
45 | CN(C(=O)CO)c1c(I)c(C(=O)NC[C@H](O)CO)c(I)c(C(=O)NC[C@H](O)CO)c1I | 2.7 | 0.23 | 1.4 | 2.3 | 1
46 | NC[C@H]1O[C@H](O[C@H]2[C@H](O)[C@@H](O[C@H]3O[C@H](CO)[C@@H](O)[C@H](N)[C@H]3O)[C@H](N)C[C@@H]2N)[C@H](O)[C@@H](O)[C@@H]1O | 3.1 | 0.26 | 1.4 | 2.1 | –
